The values that follow come from patent US10335382B2, “Use of hydrogen sulfide synthesis inhibitors for cancer therapy” (THE BOARD OF REGENTS OF THE UNIVERSITY OF TEXAS SYSTEM, priority 2013, dated 2019).

This experiment concerns the target T1, CBS (Homo sapiens, UniProt P35520).
T1 sequence (P35520 1-551): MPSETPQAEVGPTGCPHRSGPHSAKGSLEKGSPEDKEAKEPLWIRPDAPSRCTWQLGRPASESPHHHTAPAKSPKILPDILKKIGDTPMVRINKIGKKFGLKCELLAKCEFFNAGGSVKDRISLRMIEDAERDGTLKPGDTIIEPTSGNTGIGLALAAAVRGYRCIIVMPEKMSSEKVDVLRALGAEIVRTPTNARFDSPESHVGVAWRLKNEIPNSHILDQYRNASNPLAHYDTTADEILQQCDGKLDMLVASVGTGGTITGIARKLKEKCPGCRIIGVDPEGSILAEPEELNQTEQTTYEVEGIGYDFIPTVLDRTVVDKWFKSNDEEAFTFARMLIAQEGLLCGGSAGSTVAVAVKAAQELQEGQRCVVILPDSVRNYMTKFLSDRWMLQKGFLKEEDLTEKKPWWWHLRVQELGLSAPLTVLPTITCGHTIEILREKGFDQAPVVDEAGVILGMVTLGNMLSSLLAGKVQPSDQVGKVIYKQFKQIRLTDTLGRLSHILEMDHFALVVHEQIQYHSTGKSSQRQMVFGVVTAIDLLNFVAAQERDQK
Description: CBS inhibitor screen: H2S production by recombinant CBS (methylene blue assay). The experiment is classed as biochemical. Set-up: These studies used full-length human CBS enzyme; made in house; host or cells: E. coli BL21 (DE3) Codon Plus. The following applies: 100 μM; homocysteine-induced H2S production; LOPAC library screen; read-out: Inhibition of CBS activity at 100 μM. From the text: Studies have been performed characterizing, in detail, the specificity and selectivity of all known H2S biosynthesis inhibitors, using recombinant CBS and CSE enzymes. These studies used full-length human CBS enzyme, and a colorimetric ‘capture’ reaction of the H2S produced by these enzymes, an assay generally known as the ‘methylene blue assay’. This assay is used in a 96-well plate format, as well as in combination with a second screening method based on a fluorescent dye.
Human recombinant CBS is expressed as described (Asimakopoulou et al, (2013) Br J Pharmacol. 169(4):922-32). A library of pharmacologically active compounds (e.g., LOPAC library, Sigma; 1240 compounds) is tested on homocysteine-induced H2S production. In certain aspects the assay is in a 96-well format. In certain aspects H2S production is measured by the methylene blue assay (Asimakopoulou et al., (2013) Br J Pharmacol. 169(4):922-32).
Plasmids, bacterial strains and media. E. coli BL21 (DE3) Codon Plus is used as a host strain to express recombinant human CSE or CBS. CSE cDNA was cloned into pGEX-4T3 and CBS into pGEX-Kg to create N-terminal GSH-S-transferase (GST) fusion proteins. The expression vectors were transformed and plated on LB-agar plates, supplemented with ampicillin (100 μg/mL).
The expression and purification of CSE and CBS is performed as described previously with modifications (Frank et al., (2008) Arch Biochem Biophys 470:64-72; Huang et al., (2009) J Mol Biol 396: 708-18). Briefly, BL21(DE3) Codon Plus cells containing either the expression vector pGEX-4T3/GST-CSE or pGEX-Kg/GST-CBS are grown at 37° C. and 180 r.p.m. in LB broth medium containing 100 μg/mL ampicillin to an absorption of 0.6-0.8 at 600 nm. In addition, 0.3 mM d-ALA is added to the culture containing pGEX-Kg/GST-CBS. Then protein expression is induced by addition of 0.1 mM IPTG. Cells containing pGEX-4T-3/GST-CSE are incubated overnight at 18° C., whereas cells containing pGEXKg/GST-CBS are incubated overnight at 30° C. Culture is then centrifuged at 4° C. and 5000×g for 10 min and the cell pellet was resuspended in PBS (140 mM NaCl, 2.7 mM KCl, 10 mM Na2HPO4, 1.8 mM KH2PO4, pH 7.8) and stored at −20° C. overnight. After thawing, the suspension is sonicated in lysis buffer containing PBS and protease inhibitor cocktail for GST-CSE and PBS, 5 mM DTT, 1% Triton X-100, […] and protease inhibitor cocktail for GST-CBS. After centrifugation at 4° C. for 30 min, the soluble fraction containing either the GST-CSE or the GST-CBS recombinant protein is loaded onto a GSTrap FF 1 mL affinity column that has been equilibrated with binding buffer PBS. The column was consecutively washed with five column volumes of binding buffer. Proteins attached to the column, including GST-CSE or GST-CBS recombinant proteins, are eluted with five column volumes of elution buffer (50 mM Tris-HCl, 10 mM reduced GSH, pH 8.0) and then dialysed and concentrated in 10 mM sodium phosphate buffer pH 8.2 and DTT 1 mM. The purity of the recombinant enzymes was checked by SDS-PAGE on 12% polyacrylamide gels after staining of protein bands with Coomassie Blue R-250. Protein concentration was determined using the DC protein assay kit.
H2S determination is performed according to Stipanuk and Beck ((1982) Biochem J 206:267-77) with some modifications. In the case of the CSE enzyme, an assay consist of a 100 μL reaction mixture containing 5 μg of the purified CSE enzyme, 0.01 mM PLP, 1 mM L-cys, and 50 mM sodium phosphate buffer pH 8.2. For the CBS enzyme, the reaction mixture contains the same as for the CSE plus 1 mM homocysteine. The inhibitors can be added to the reaction before L-cys is added to the solution. Reactions are initiated by transferring the reaction solutions from ice to a 37° C. shaking water bath. After incubation at 37° C. the reaction is terminated by adding 1% ZnAc to trap H2S followed by 10% TCA to precipitate proteins. […]

As a reminder, the inhibition is the share of the control response that was lost under treatment.

On to `NOCC(=O)O` [AOAA, aminooxyacetic acid], for which the inhibition at 100 µM was found to be 98%.
